# Values joined by “and” are separate entries in the source; they are usually repeats but may differ in a detail not shown here. Identical values can stand only once. Like-named read-outs stand apart in the source and are kept apart here.
# Biological target: HIV-1LAI envelope gp120 (Human immunodeficiency virus type 1 group M subtype B, UniProt P03377)
# Format: binding
# Settings: for Counts per 20′ Average-background: CCR5 18-mer scan, radiolabeled HIV-1LAI gp120; for number of radioactive decays (counts) counted: human CD4 21-mer scan, empty control 2075
# [1] = CXCR4 18-mer scan, background subtracted, empty control 0
# [2] = CXCR4 18-mer scan, empty control 412
# [3] = STRL33 18-mer scan, background subtracted, first of two count columns
# [4] = STRL33 18-mer scan, background subtracted, second of two count columns
# [5] = Panel G, alanine replacements and serial truncations (Z) of CD4 polypeptides, empty control 580
# [6] = Panel E, 9-mers and 12-mers of CD4, empty control 571
# [7] = Panel C, 15-mers and 18-mers of CD4, empty control 556
# [8] = Panel D, 9-mers and 12-mers of CD4, empty control […]
# [9] = Panel B, 15-mers and 18-mers of CD4, empty control 575
sequence,measurement,setting,value
FVGNMLVILILINCKRLK [CCR5 segment 45-62],Counts per 20′ Average-background,background subtracted,62 counts per 20′
FWAHYAAAQWDFGNTMCQ [CCR5 segment 85-],Counts per 20′ Average-background,background subtracted,212 counts per 20′
FWAVDAVANWYFGNFLCK [CXCR4 segment 93-110],radioactive counts recorded in twenty minutes,[1],66 counts
same,radioactive counts recorded in twenty minutes,[2],478 counts
FWKNFQTLKIVILGLVLP [CCR5 segment 189-],Counts per 20′ Average-background,background subtracted,40 counts per 20′
FYPNDLWVVVFQFQHIMV [CXCR4 segment 189-206],radioactive counts recorded in twenty minutes,[1],416 counts
same,radioactive counts recorded in twenty minutes,[2],828 counts
FYTSMLILTCITVDRFIV [STRL33 segment 113-130],radioactive counts recorded in twenty minutes,[3],744.5 counts
same,radioactive counts recorded in twenty minutes,[4],907.5 counts
GAQVEFSFPLAFTVE,COUNTS of radiolabeled gp120 retained,[5],18079 counts and 17733 counts
GCEFENTVHKWISITEAL [CXCR4 segment 273-290],radioactive counts recorded in twenty minutes,[1],264 counts
same,radioactive counts recorded in twenty minutes,[2],676 counts
GEAVEFSFPLAFTVE,COUNTS of radiolabeled gp120 retained,[5],19756 counts and 17500 counts
GEKFRNYLLVFFQKHIAK [CCR5 segment 301-],Counts per 20′ Average-background,background subtracted,69 counts per 20′
GELWWQAERASSSKSWITFDL [human CD4 236-256],number of radioactive decays (counts) counted,,2730 counts
GEQAEFSFPLAFTVE,COUNTS of radiolabeled gp120 retained,[5],14764 counts and 13000 counts
GEQVAFSFPLAFTVE,COUNTS of radiolabeled gp120 retained,[5],16668 counts and 13930 counts
GEQVEASFPLAFTVE,COUNTS of radiolabeled gp120 retained,[5],6793 counts and 6533 counts
GEQVEFAFPLAFTVE,COUNTS of radiolabeled gp120 retained,[5],21681 counts and 20072 counts
GEQVEFSAPLAFTVE,COUNTS of radiolabeled gp120 retained,[5],7767 counts and 7378 counts
GEQVEFSFALAFTVE,COUNTS of radiolabeled gp120 retained,[5],20480 counts and 19480 counts
GEQVEFSFP,COUNTS of radiolabeled gp120 retained,[6],697 counts
GEQVEFSFPAAFTVE,COUNTS of radiolabeled gp120 retained,[5],10024 counts and 10589 counts
GEQVEFSFPLAATVE,COUNTS of radiolabeled gp120 retained,[5],10130 counts and 9572 counts
GEQVEFSFPLAF,COUNTS of radiolabeled gp120 retained,[6],1729 counts
GEQVEFSFPLAFAVE,COUNTS of radiolabeled gp120 retained,[5],20627 counts and 19516 counts
GEQVEFSFPLAFTAE,COUNTS of radiolabeled gp120 retained,[5],18797 counts and 16765 counts
GEQVEFSFPLAFTVA,COUNTS of radiolabeled gp120 retained,[5],18371 counts and 18187 counts
GEQVEFSFPLAFTVE,COUNTS of radiolabeled gp120 retained,[7],4656 counts
same,COUNTS of radiolabeled gp120 retained,[5],18856 counts and 18867 counts and 20691 counts and 17662 counts and 19190 counts and 18219 counts
GEQVEFSFPLAFTVEKLT,COUNTS of radiolabeled gp120 retained,[7],1643 counts
GEQVEFSFPLAFTVEKLTGSG [human CD4 216-236],COUNTS of radiolabeled gp120 retained,"Panel A, 21-mers of CD4, empty control 515 and 617",652 counts
same,number of radioactive decays (counts) counted,,18549 counts
GEQVEFSFPLTFTVE,COUNTS of radiolabeled gp120 retained,[5],17397 counts and 18318 counts
GFSSFNDSSQEEEQAFLQ,"Binding Results For Window Length (counts bound-background), 9","STRL33 amino terminus, 9-mer starting at the first residue of the printed sequence, background subtracted",171 counts
same,"Binding Results For Window Length (counts bound-background), 12","STRL33 amino terminus, 12-mer starting at the first residue of the printed sequence, background subtracted",480 counts
same,"Binding Results For Window Length (counts bound-background), 15","STRL33 amino terminus, 15-mer starting at the first residue of the printed sequence, background subtracted",270 counts
same,"Binding Results For Window Length (counts bound-background), 18","STRL33 amino terminus, 18-mer starting at the first residue of the printed sequence, background subtracted",1639 counts
GKLHQEVNLVVMRATQLQKNL [human CD4 306-326],number of radioactive decays (counts) counted,,1776 counts
GLHYTCSSEFPYSQYQFW,Counts per 20′ Average-background,background subtracted,301 counts per 20′
GLNNCSSSNRLDQAMQVT [CCR5 segment 265-],Counts per 20′ Average-background,background subtracted,−31 counts per 20′
GLTANSDTH,COUNTS of radiolabeled gp120 retained,[8],481 counts
GLTANSDTHLLQ,COUNTS of radiolabeled gp120 retained,[8],574 counts
GLTANSDTHLLQGQS,COUNTS of radiolabeled gp120 retained,[9],532 counts
GLTANSDTHLLQGQSLTL,COUNTS of radiolabeled gp120 retained,[9],572 counts
GLVGNSLVLVISIFYHKL [STRL33 segment 45-62],radioactive counts recorded in twenty minutes,[3],164.5 counts
same,radioactive counts recorded in twenty minutes,[4],95.5 counts
GLVILVMGYQKKLRSMTD [CXCR4 segment 57-74],radioactive counts recorded in twenty minutes,[1],157 counts
same,radioactive counts recorded in twenty minutes,[2],569 counts
GMWQCLLSDSGQVLLESNIKV,number of radioactive decays (counts) counted,,4185 counts
GNFLCKAVHVIYTVNLYS,radioactive counts recorded in twenty minutes,[1],231 counts
same,radioactive counts recorded in twenty minutes,[2],643 counts
GNFPLIIKN,COUNTS of radiolabeled gp120 retained,[8],600 counts
GNFPLIIKNLKI,COUNTS of radiolabeled gp120 retained,[8],547 counts
GNFPLIIKNLKIEDS,COUNTS of radiolabeled gp120 retained,[9],624 counts
GNFPLIIKNLKIEDSDTY,COUNTS of radiolabeled gp120 retained,[9],557 counts

# From patent US20030068615A1, “Polypeptides that bind HIV gp120 and related nucleic acids, antibodies, compositions, and methods of use” (priority 1999, published 2003)
